{"source": "patent US20200023001A1", "about": "“GlycoFix (Structurally And Functionally Repaired Endothelial Glycocalyx)” (Northeastern University, priority 2018, published 2020)", "key": {"RFPEC": {"test_system": "RFPEC", "test": "PEG-AuNP uptake by RFPEC under glycocalyx conditions (confocal red fluorescence)", "type": "cell-based, rat", "conditions": "repaired glycocalyx (Hep III, then 59 μg/mL exogenous HS); 550 μg/mL PEG-AuNP, 16 hours", "procedure": "(§1) RFPEC Culture. A rat fat pad endothelial cell (RFPEC) line^37 was utilized, originally isolated from rat epididymal fat pads by Dr. Mia Thi of Albert Einstein College of Medicine (Bronx, N.Y., USA). RFPECs were selected for their ability to naturally express a robust glycocalyx.^38 These ECs were cultured in tissue culture flasks at 37° C. and 5% CO2 in a humidified environment with Dulbecco's Modified Eagle's Medium (DMEM) supplemented with 10% fetal bovine serum (FBS) and 1% penicillin-streptomycin, all purchased from Thermo Fisher Scientific (Waltham, Mass., USA). For 3-(4,5-dimethylthiazol-2-yl)-5-(3-carboxymethoxyphenyl)-2-(4-sulfophenyl)-2H-tetrazolium (MTS) assays (Sigma-Aldrich Co., St Louis, Mo., USA), RFPECs were seeded at 3.7×10^4 cells/cm^2 in tissue culture-treated, 96-well plates (Falcon; Thermo Fisher Scientific) and imaged on a SpectraMax M3 plate reader to show cell viability and metabolic activity. […]\nPEG-AuNP. […] After dialysis in 12-14 kDa molecular weight cutoff tubes (EMD Millipore, Billerica, Mass., USA) and lyophilization, an Alexa Fluor 647 N-hydroxysuccinimide (NHS) ester (succinimidyl ester) was conjugated onto the NH2 functional groups on the AuNP to allow for visualization under fluorescence. […] PEG-AuNP fluorescence activity was confirmed using a Jobin Yvon Fluoromax 4. […]"}, "[1]": {"test_system": "RFPEC glycocalyx (adsorbed BSA)", "test": "Whole glycocalyx thickness and coverage by BSA immunofluorescence (Example 2)", "type": "cell-based, rat", "conditions": "Hep III 2 h then 16 h, with or without 59 μg/mL HS", "procedure": "as §1, with “activity. For confocal imaging, RFPECs were seeded onto 12-mm diameter round glass cover slips (Thermo Fisher Scientific) at 1×10^4 cells/cm^2 in tissue culture-treated six-well plates (Falcon; Thermo Fisher Scientific).” for “activity.”\nRFPEC glycocalyx treatments. […] The red fluorescence detected from conjugated Alexa Fluor 647 was attributed to AuNP within the RFPEC monolayers (details are given in the “Confocal imaging and analysis” section). […]"}}}
{"substance": "heparan sulfate [HS]", "values": [{"measurement": "PEG-AuNP uptake relative to cells with healthy, intact glycocalyx", "setting": "RFPEC", "result": "1.3±0.3", "unit": "fold"}, {"measurement": "whole glycocalyx (BSA) coverage of the EC layer", "setting": "[1]", "result": 75.2, "unit": "%+4.0%"}, {"measurement": "whole glycocalyx (BSA) thickness", "setting": "[1]; mean±SEM", "result": "2.41±0.3", "unit": "μm"}]}
